Five molecules from ChEMBL document CHEMBL4411303, “Synthesis of tetrazole derivatives bearing pyrrolidine scaffold and evaluation of their antifungal activity against Candida albicans” (Eur J Med Chem, 2019) can be followed below.

Holding throughout (assay type): functional
Experiment [1] has as its system Candida albicans. As to the kind of experiment: Antifungal activity against Candida albicans ATCC 90028 assessed as planktonic growth inhibition at 0.08 uM after 48 hrs by M27-A3 protocol based method relative to control. Particulars: ATCC 90028, 48 h, read-out: GI.
The test system of experiment [2] is Candida albicans. The experiment is described as follows: Antifungal activity against Candida albicans ATCC 90028 assessed as planktonic growth inhibition at 0.16 uM after 48 hrs by M27-A3 protocol based method relative to control. Particulars: ATCC 90028, 48 h, read-out: GI.
For experiment [3], the system named is Candida albicans. The experiment is described as follows: Antifungal activity against Candida albicans ATCC 90028 assessed as planktonic growth inhibition at 0.33 uM after 48 hrs by M27-A3 protocol based method relative to control. Particulars: ATCC 90028, 48 h, read-out: GI.
For experiment [4], the system named is Candida albicans. The experiment is described as follows: Antifungal activity against Candida albicans ATCC 90028 assessed as planktonic growth inhibition at 0.65 uM after 48 hrs by M27-A3 protocol based method relative to control. Particulars: ATCC 90028, 48 h, read-out: GI.
The subject of experiment [5] is Candida albicans. The experiment is described as follows: Antifungal activity against Candida albicans ATCC 90028 assessed as planktonic growth inhibition at 1.31 uM after 48 hrs by M27-A3 protocol based method relative to control. Particulars: ATCC 90028, 48 h, read-out: GI.
Experiment [6] deals with Candida albicans. The experiment is described as follows: Antifungal activity against Candida albicans ATCC 90028 assessed as planktonic growth inhibition at 2.62 uM after 48 hrs by M27-A3 protocol based method relative to control. Particulars: ATCC 90028, 48 h, read-out: GI.
The test system of experiment [7] is Candida albicans. The experiment is described as follows: Antifungal activity against Candida albicans ATCC 90028 assessed as planktonic growth inhibition at 5.24 uM after 48 hrs by M27-A3 protocol based method relative to control. Particulars: ATCC 90028, 48 h, read-out: GI.
The subject of experiment [8] is Candida albicans. The experiment is described as follows: Antifungal activity against Candida albicans ATCC 90028 assessed as planktonic growth inhibition at 10.47 uM after 48 hrs by M27-A3 protocol based method relative to control. Particulars: ATCC 90028, 48 h, read-out: GI.
In experiment [9] the test system is Candida albicans. The experiment is described as follows: Antifungal activity against Candida albicans ATCC 90028 assessed as planktonic growth inhibition at 20.95 uM after 48 hrs by M27-A3 protocol based method relative to control. To be noted: ATCC 90028, 48 h, read-out: GI.
For experiment [10], the system named is Candida albicans. The experiment is described as follows: Antifungal activity against Candida albicans ATCC 90028 assessed as planktonic growth inhibition at 41.9 uM after 48 hrs by M27-A3 protocol based method relative to control. Particulars: ATCC 90028, 48 h, read-out: GI.
Experiment [11] deals with Candida albicans. The experiment is described as follows: Fungicidal activity against Candida albicans ATCC 90028 assessed as log reduction in fungal load incubated for 48 hrs followed by replating on sabouraud dextrose agar plate and measured after 48 hrs.
Experiment [12] deals with Candida albicans. As to the kind of experiment: Antifungal activity against Candida albicans ATCC 90028 assessed as planktonic growth inhibition at 0.17 uM after 48 hrs by M27-A3 protocol based method relative to control. Particulars: ATCC 90028, 48 h, read-out: GI.
For experiment [13], the system named is Candida albicans. As to the kind of experiment: Antifungal activity against Candida albicans ATCC 90028 assessed as planktonic growth inhibition at 0.34 uM after 48 hrs by M27-A3 protocol based method relative to control. To be noted: ATCC 90028, 48 h, read-out: GI.
Experiment [14] has as its system Candida albicans. The experiment is described as follows: Antifungal activity against Candida albicans ATCC 90028 assessed as planktonic growth inhibition at 0.68 uM after 48 hrs by M27-A3 protocol based method relative to control. To be noted: ATCC 90028, 48 h, read-out: GI.
Experiment [15] concerns Candida albicans. The experiment is described as follows: Antifungal activity against Candida albicans ATCC 90028 assessed as planktonic growth inhibition at 1.36 uM after 48 hrs by M27-A3 protocol based method relative to control. To be noted: ATCC 90028, 48 h, read-out: GI.
Experiment [16] has as its system Candida albicans. The experiment is described as follows: Antifungal activity against Candida albicans ATCC 90028 assessed as planktonic growth inhibition at 2.72 uM after 48 hrs by M27-A3 protocol based method relative to control. Particulars: ATCC 90028, 48 h, read-out: GI.
The test system of experiment [17] is Candida albicans. The experiment is described as follows: Antifungal activity against Candida albicans ATCC 90028 assessed as planktonic growth inhibition at 5.44 uM after 48 hrs by M27-A3 protocol based method relative to control. To be noted: ATCC 90028, 48 h, read-out: GI.
Experiment [18] has as its system Candida albicans. The experiment is described as follows: Antifungal activity against Candida albicans ATCC 90028 assessed as planktonic growth inhibition at 10.87 uM after 48 hrs by M27-A3 protocol based method relative to control. To be noted: ATCC 90028, 48 h, read-out: GI.
In experiment [19] the test system is Candida albicans. As to the kind of experiment: Antifungal activity against Candida albicans ATCC 90028 assessed as planktonic growth inhibition at 21.75 uM after 48 hrs by M27-A3 protocol based method relative to control. To be noted: ATCC 90028, 48 h, read-out: GI.
Experiment [20] has as its system Candida albicans. As to the kind of experiment: Antifungal activity against Candida albicans ATCC 90028 assessed as planktonic growth inhibition at 43.49 uM after 48 hrs by M27-A3 protocol based method relative to control. To be noted: ATCC 90028, 48 h, read-out: GI.
The subject of experiment [21] is Candida albicans. The experiment is described as follows: Antifungal activity against Candida albicans ATCC 90028 assessed as planktonic growth inhibition at 0.09 uM after 48 hrs by M27-A3 protocol based method relative to control. To be noted: ATCC 90028, 48 h, read-out: GI.
Experiment [22] deals with Candida albicans. As to the kind of experiment: Antifungal activity against Candida albicans ATCC 90028 assessed as planktonic growth inhibition at 0.18 uM after 48 hrs by M27-A3 protocol based method relative to control. Particulars: ATCC 90028, 48 h, read-out: GI.
Experiment [23] deals with Candida albicans. The experiment is described as follows: Antifungal activity against Candida albicans ATCC 90028 assessed as planktonic growth inhibition at 0.36 uM after 48 hrs by M27-A3 protocol based method relative to control. To be noted: ATCC 90028, 48 h, read-out: GI.
The test system of experiment [24] is Candida albicans. The experiment is described as follows: Antifungal activity against Candida albicans ATCC 90028 assessed as planktonic growth inhibition at 0.72 uM after 48 hrs by M27-A3 protocol based method relative to control. Particulars: ATCC 90028, 48 h, read-out: GI.
For experiment [25], the system named is Candida albicans. As to the kind of experiment: Antifungal activity against Candida albicans ATCC 90028 assessed as planktonic growth inhibition at 1.44 uM after 48 hrs by M27-A3 protocol based method relative to control. Particulars: ATCC 90028, 48 h, read-out: GI.
The test system of experiment [26] is Candida albicans. As to the kind of experiment: Antifungal activity against Candida albicans ATCC 90028 assessed as planktonic growth inhibition at 2.88 uM after 48 hrs by M27-A3 protocol based method relative to control. Particulars: ATCC 90028, 48 h, read-out: GI.
Experiment [27] concerns Candida albicans. As to the kind of experiment: Antifungal activity against Candida albicans ATCC 90028 assessed as planktonic growth inhibition at 5.76 uM after 48 hrs by M27-A3 protocol based method relative to control. To be noted: ATCC 90028, 48 h, read-out: GI.
Experiment [28] relates to Candida albicans. As to the kind of experiment: Antifungal activity against Candida albicans ATCC 90028 assessed as planktonic growth inhibition at 11.51 uM after 48 hrs by M27-A3 protocol based method relative to control. To be noted: ATCC 90028, 48 h, read-out: GI.
Experiment [29] relates to Candida albicans. As to the kind of experiment: Antifungal activity against Candida albicans ATCC 90028 assessed as planktonic growth inhibition at 23.02 uM after 48 hrs by M27-A3 protocol based method relative to control. Particulars: ATCC 90028, 48 h, read-out: GI.
Experiment [30] has as its system Candida albicans. As to the kind of experiment: Antifungal activity against Candida albicans ATCC 90028 assessed as planktonic growth inhibition at 46.05 uM after 48 hrs by M27-A3 protocol based method relative to control. To be noted: ATCC 90028, 48 h, read-out: GI.

Turning to `Cc1ccc(C2CCCN2CCCn2nnc(-c3ccc(Cl)cc3)n2)cc1` (stereo not given), the inhibition of growth at 0.08 µM in experiment [1] is 99.2%. Further, the inhibition of growth at 0.16 µM in [2] turned out to be 99.1%. In addition, in [3], the inhibition of growth at 0.33 µM stood at 99.3%. Besides, in experiment [4], the inhibition of growth at 0.65 µM is 99.2%. Also, the inhibition of growth at 1.31 µM in [5] came out at 99.4%. Further, the inhibition of growth at 2.62 µM in [6] turned out to be 99.2%. In addition, the inhibition of growth at 5.24 µM in experiment [7] is 99.4%. In addition, the inhibition of growth at 10.47 µM in experiment [8] turned out to be 99.4%. The inhibition of growth at 20.95 µM in experiment [9] was 99.4%. Also, in experiment [10], the inhibition of growth at 41.9 µM was 99.2%. Further, the “log(activity)” value in [11] is on record as -0.5.

On to `Clc1ccc(-c2nnn(CCCN3CCCC3c3ccccc3)n2)cc1` (stereo not given), for which the inhibition of growth at 0.08 µM in [1] came to 99.3%. Moreover, the inhibition of growth at 0.17 µM in experiment [12] turned out to be 99.3%. Also, the inhibition of growth at 0.34 µM in experiment [13] came out at 99.3%. Further, the inhibition of growth at 0.68 µM in [14] was 99.3%. Also, the inhibition of growth at 1.36 µM in [15] came out at 99.4%. Besides, the inhibition of growth at 2.72 µM in experiment [16] is 99.4%. In addition, the inhibition of growth at 5.44 µM in experiment [17] is 99.3%. Moreover, the inhibition of growth at 10.87 µM in experiment [18] worked out at 99.2%. Further, the inhibition of growth at 21.75 µM in experiment [19] stood at 99.2%. Also, the inhibition of growth at 43.49 µM in experiment [20] was found to be 99.1%. The “log(activity)” value in experiment [11] is -0.5.

For the molecule `Cc1cccc(C2CCCN2CCCn2nnc(-c3ccccc3Cl)n2)c1` (stereo not given), in experiment [1], the inhibition of growth at 0.08 µM is 99.1%. For the same molecule, the inhibition of growth at 0.16 µM in experiment [2] is 99.1%. The inhibition of growth at 0.33 µM in experiment [3] stood at 99.2%. Besides, the inhibition of growth at 0.65 µM in experiment [4] is 99.2%. Moreover, the inhibition of growth at 1.31 µM in experiment [5] was 99.2%. In addition, the inhibition of growth at 2.62 µM in [6] is 99.3%. In addition, in experiment [7], the inhibition of growth at 5.24 µM was found to be 99.4%. For the same molecule, in [8], the inhibition of growth at 10.47 µM was 99.6%. Moreover, in experiment [9], the inhibition of growth at 20.95 µM is 99.7%. In [10], the inhibition of growth at 41.9 µM amounted to 99.8%. The “log(activity)” value in experiment [11] is listed as -0.5.

For the molecule `Cc1ccc(-c2nnn(CCCN3CCCC3c3ccccc3)n2)cc1` (stereo not given), the inhibition of growth at 0.09 µM in [21] stood at 99%. Also, the inhibition of growth at 0.18 µM in experiment [22] amounted to 99.8%. In addition, the inhibition of growth at 0.36 µM in experiment [23] turned out to be 98.8%. Also, in experiment [24], the inhibition of growth at 0.72 µM was 98.8%. Moreover, the inhibition of growth at 1.44 µM in experiment [25] was determined as 97.8%. For the same molecule, the inhibition of growth at 2.88 µM in [26] stood at 95.1%. For the same molecule, in [27], the inhibition of growth at 5.76 µM came out at 94.4%. For the same molecule, in experiment [28], the inhibition of growth at 11.51 µM amounted to 93.4%. The inhibition of growth at 23.02 µM in [29] was 99.4%. Also, the inhibition of growth at 46.05 µM in experiment [30] turned out to be 98.5%. The “log(activity)” value in experiment [11] is -1.

For the molecule `Clc1ccc(C2CCCN2CCCn2nnc(-c3ccccc3)n2)cc1` (stereo not given), the inhibition of growth at 0.08 µM in [1] was determined as 99.4%. The inhibition of growth at 0.17 µM in experiment [12] is 99.3%. Also, the inhibition of growth at 0.34 µM in experiment [13] is 99.4%. For the same molecule, the inhibition of growth at 0.68 µM in [14] was determined as 99.4%. Moreover, the inhibition of growth at 1.36 µM in [15] was determined as 99.4%. Moreover, the inhibition of growth at 2.72 µM in experiment [16] turned out to be 99.2%. Further, the inhibition of growth at 5.44 µM in experiment [17] turned out to be 99.3%. The inhibition of growth at 10.87 µM in experiment [18] turned out to be 99.2%. Besides, the inhibition of growth at 21.75 µM in experiment [19] was found to be 99.4%. Also, the inhibition of growth at 43.49 µM in experiment [20] amounted to 99.6%. In experiment [11], the “log(activity)” value is listed as -1.4.
